This note sets out measurements from US20180305669A1, “MICROTISSUE FORMATION USING STEM CELL-DERIVED HUMAN HEPATOCYTES” (FUJIFILM Cellular Dynamics, Inc., priority 2015, published 2018).

One series concerns CYP1A2. The series can be described thus: P450-GLO CYP1A2 assay, drug-induced CYP activity in 3-D microtissue of iCell Hepatocytes. To be noted: day 6 spheroids, 20% GELTREX, about 0.1 to 100 μM for about 24 hours.

`O=C(O)Cc1ccccc1Nc1c(Cl)cccc1Cl` [Diclofenac]: the hepatotoxicity response entry in the series with iCell Hepatocytes is reported as “Increased sensitivity”. `Cc1ccc(C(=O)c2cc(O)c(O)c([N+](=O)[O-])c2)cc1` [Tolcapone]: the hepatotoxicity response result in the series with iCell Hepatocytes is recorded as “Increased sensitivity”. Take `COc1ccc2[nH]c([S+]([O-])Cc3ncc(C)c(OC)c3C)nc2c1` (stereo not drawn) [Omeprazole]: the “induction of CYP1A2 activity” value with CYP1A2 was “about 2.5 fold”.
